Like-named read-outs stand apart in the source and are kept apart here.
Target: T1, IRAK4 (Homo sapiens, UniProt Q9NWZ3)
T1 construct: Degradation of IRAK4 in OCI-LY10 was quantitatively measured using Meso Scale Discovery technology; endogenous in cells; host or cells: OCI-LY10
T1 sequence (Q9NWZ3 1-460): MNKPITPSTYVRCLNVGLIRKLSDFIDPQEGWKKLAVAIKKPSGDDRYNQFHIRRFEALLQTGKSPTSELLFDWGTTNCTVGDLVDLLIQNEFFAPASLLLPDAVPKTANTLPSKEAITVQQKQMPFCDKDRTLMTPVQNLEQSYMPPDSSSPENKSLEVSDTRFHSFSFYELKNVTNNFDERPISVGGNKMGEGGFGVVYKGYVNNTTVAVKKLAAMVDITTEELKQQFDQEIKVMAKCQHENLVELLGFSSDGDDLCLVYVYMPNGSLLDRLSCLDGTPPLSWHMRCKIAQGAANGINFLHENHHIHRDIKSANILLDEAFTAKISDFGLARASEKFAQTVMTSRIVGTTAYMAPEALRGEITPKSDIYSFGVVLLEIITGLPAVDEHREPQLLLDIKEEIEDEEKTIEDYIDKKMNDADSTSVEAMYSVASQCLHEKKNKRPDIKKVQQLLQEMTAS
Experiment: IRAK4 MSD Degradation in OCI-LY10
Assay type: cell-based
Conditions: OCI-LY10 cells
In short: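 OCI-LY10 cells exposed to 8-point 1:3 compound series (top 1 to 10 μM) for 4 to 24 h at 37 °C, 5% CO2. Lysate IRAK4 quantified by MSD sandwich immunoassay. DC50 from three-parameter logistic fit, binned A (<0.01 μM) to D (>0.2 μM or not tested).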

[1] = 4 hrs incubation, MSD, read-out: IRAK4 degradation in OCI-LY10 at 4 hrs: DC50
[2] = 24 hrs incubation, MSD, read-out: IRAK4 degradation in OCI-LY10 at 24 hrs: DC50

DC50 [1]	DC50 [2]	DC50 (4 hrs incubation, read-out: IRAK4 degradation in OCI-LY10 at 4 hrs: DC50)	DC50 (24 hrs incubation, read-out: IRAK4 degradation in OCI-LY10 at 24 hrs: DC50)	Structure (SMILES)
0.01 to 0.1 µM	> 0.2 µM			Cn1c(=O)n(C2CCC(=O)NC2=O)c2cccc(C#CCOC3CCN(C[C@H]4CC[C@H](n5cc(NC(=O)c6cnn7ccc(N8CCC9(CCOCC9)C8)nc67)c(C(F)F)n5)CC4)CC3)c21 (some centres unmarked) [I-329]
0.01 to 0.1 µM	> 0.2 µM			C[C@@H]1CN(C[C@H]2CC[C@H](n3cc(NC(=O)c4cnn5ccc(N6C[C@H]7C[C@@H]6CO7)nc45)c(C(F)F)n3)CC2)CC[C@H]1OCC#Cc1ccc2c(N3CCC(=O)NC3=O)cncc2c1 [I-49]
> 0.2 µM	> 0.2 µM			Cc1ccc(-c2nn([C@H]3CC[C@H](CN(C)C4CCN(c5cccc6c5n(C)c(=O)n6C5CCC(=O)NC5=O)CC4)CC3)cc2NC(=O)c2cnn3cccnc23)c(F)c1 (some centres unmarked) [I-293]
> 0.2 µM	> 0.2 µM			Cn1c(=O)n(C2CCC(=O)NC2=O)c2cccc(C#CCOC3CCN(CC4CCN(c5cnc(C(F)F)c(NC(=O)c6cnn7ccc(N8C[C@H]9C[C@@H]8CO9)nc67)c5)CC4)CC3)c21 (some centres unmarked) [I-179]
> 0.2 µM	> 0.2 µM			Cn1c(=O)n(C2CCC(=O)NC2=O)c2cccc(C3CN([C@@H]4CCN([C@H]5CC[C@H](n6cc(NC(=O)c7cnn8ccc(N9C[C@H]%10C[C@@H]9CO%10)nc78)c(C(F)F)n6)CC5)CC4(F)F)C3)c21 (some centres unmarked) [I-749]
> 0.2 µM	> 0.2 µM			Cn1c(=O)n(C2CCC(=O)NC2=O)c2cccc(C[C@@H]3CN(C[C@H]4CC[C@H](n5cc(NC(=O)c6cnn7cccnc67)c(C(F)F)n5)CC4)CCO3)c21 (some centres unmarked) [I-391]
		> 0.2 µM	> 0.2 µM	Cn1c(=O)n(C2CCC(=O)NC2=O)c2cccc(N3CC(O[C@H]4CC[C@H](n5cc6cc(NC(=O)c7cccc(C(F)(F)F)n7)ncc6n5)CC4)C3)c21 (some centres unmarked) [I-795]
> 0.2 µM	> 0.2 µM			CO[C@H]1CN(c2cccc3c2n(C)c(=O)n3C2CCC(=O)NC2=O)C[C@@H]1N(C)C[C@H]1CC[C@H](n2cc3cc(NC(=O)c4cccc(C(F)(F)F)n4)ccc3n2)CC1 (some centres unmarked) [I-492]
> 0.2 µM	> 0.2 µM			COc1cc2nn([C@H]3CC[C@H](CN4CCC5(CC4)CCN(c4cccc6c4n(C)c(=O)n6C4CCC(=O)NC4=O)CC5)CC3)cc2cc1NC(=O)c1cncc(C(F)(F)F)c1 (some centres unmarked) [I-92]
> 0.2 µM	> 0.2 µM			CO[C@@H]1CN(c2cccc3c2n(C)c(=O)n3C2CCC(=O)NC2=O)C[C@@H]1N(C)C[C@H]1CC[C@H](n2cc3cc(NC(=O)c4cccc(C(F)(F)F)n4)ccc3n2)CC1 (some centres unmarked) [I-491]
> 0.2 µM	> 0.2 µM			COc1nc(NC(=O)c2cccc(C(F)(F)F)n2)cc2cn([C@H]3CC[C@H](CN4CCC(c5cccc6c5n(C)c(=O)n6C5CCC(=O)NC5=O)C(F)(F)C4)CC3)nc12 (some centres unmarked) [I-769]
> 0.2 µM	< 0.01 µM			Cn1c(=O)n(C2CCC(=O)NC2=O)c2cccc(C#CCOC3CCN(C[C@H]4CC[C@H](n5cc(NC(=O)c6cnn7ccc(N8CCC(F)(F)CC8)nc67)c(C(F)F)n5)CC4)CC3)c21 (some centres unmarked) [I-433]
> 0.2 µM	< 0.01 µM			Cn1c(=O)n(C2CCC(=O)NC2=O)c2cccc(C3COC4(C3)CN(C[C@H]3CC[C@H](n5cc6cc(NC(=O)c7cccc(C(F)(F)F)n7)ncc6n5)CC3)C4)c21 (some centres unmarked) [I-688]
0.01 to 0.1 µM	> 0.2 µM			Cn1c(=O)n(C2CCC(=O)NC2=O)c2cccc(C#CC[C@@H]3CN(C[C@H]4CC[C@H](n5cc(NC(=O)c6cnn7ccc(N8C[C@H]9C[C@@H]8CO9)nc67)c(C(F)F)n5)CC4)CCO3)c21 (some centres unmarked) [I-389]
> 0.2 µM	> 0.2 µM			Cn1c(=O)n(C2CCC(=O)NC2=O)c2cccc(C3CCN(C[C@H]4CC[C@H](n5cc6cc(NC(=O)c7cccc(C(F)(F)F)n7)ncc6n5)CC4)CC3(F)F)c21 (some centres unmarked) [I-488]
> 0.2 µM	> 0.2 µM			O=C1CCN(c2cncc3cc(C4CCN(C[C@H]5CC[C@H](n6cc7cc(NC(=O)c8cccc(C(F)(F)F)n8)ccc7n6)CC5)CC4(F)F)ccc23)C(=O)N1 (some centres unmarked) [I-473]
> 0.2 µM	< 0.01 µM			CN(C[C@H]1CC[C@H](n2cc(NC(=O)c3cnn4ccc(N5CC6CC(C5)O6)nc34)c(C(F)F)n2)CC1)C1CCN(c2cccc3c2n(C)c(=O)n3C2CCC(=O)NC2=O)CC1(F)F (some centres unmarked) [I-525]
> 0.2 µM	> 0.2 µM			O=C1CCN(c2cncc3cc(C4=CCN(C[C@H]5CC[C@H](n6cc7cc(NC(=O)c8cccc(C(F)(F)F)n8)ccc7n6)CC5)CC4(F)F)ccc23)C(=O)N1 [I-472]
> 0.2 µM	> 0.2 µM			Cn1c(=O)n(C2CCC(=O)NC2=O)c2cccc(C#CCOC3CCN(C[C@H]4CC[C@@H](c5ccc(C(F)F)c(NC(=O)c6cnn7ccc(N8C[C@H]9C[C@@H]8CO9)nc67)c5)CC4)CC3)c21 (some centres unmarked) [I-691]

DC50 [1]	DC50 [2]	DC50 (4 hrs incubation, read-out: IRAK4 degradation in OCI-LY10 at 4 hrs: DC50)	DC50 (24 hrs incubation, read-out: IRAK4 degradation in OCI-LY10 at 24 hrs: DC50)	Structure (SMILES)
> 0.2 µM	> 0.2 µM			CO[C@H]1CN(c2cccc3c2n(C)c(=O)n3C2CCC(=O)NC2=O)CC[C@H]1N(C)C[C@H]1CC[C@H](n2cc3cc(NC(=O)c4cccc(C(F)(F)F)n4)ccc3n2)CC1 (some centres unmarked) [I-498]
> 0.2 µM	> 0.2 µM			COc1nc(NC(=O)c2cccc(C)n2)cc2cn([C@H]3CC[C@H](CN4CC[C@@H](c5cccc6c5n(C)c(=O)n6C5CCC(=O)NC5=O)[C@H](F)C4)CC3)nc12 (some centres unmarked) [I-775]
> 0.2 µM	> 0.2 µM			Cn1c(=O)n(C2CCC(=O)NC2=O)c2cccc([C@H]3CCN(C[C@H]4CC[C@H](n5cc6cc(NC(=O)c7cccc(C#N)n7)c(C(C)(C)O)cc6n5)CC4)C[C@@H]3F)c21 (some centres unmarked) [I-650]
> 0.2 µM	< 0.01 µM			Cn1c(=O)n(C2CCC(=O)NC2=O)c2cccc(C#CCN3CCN(C[C@H]4CC[C@H](n5cc(NC(=O)c6cnn7ccc(N8CC9CC(C8)O9)nc67)c(C(F)F)n5)CC4)CC3)c21 (some centres unmarked) [I-337]
< 0.01 µM	> 0.2 µM			COc1ccc2c(c1C#CCO[C@H]1CCN(C[C@H]3CC[C@H](n4cc(NC(=O)c5cnn6ccc(N7C[C@H]8C[C@@H]7CO8)nc56)c(C(F)F)n4)CC3)C[C@@H]1C)n(C)c(=O)n2C1CCC(=O)NC1=O (some centres unmarked) [I-58]
> 0.2 µM	> 0.2 µM			Cn1c(=O)n(C2CCC(=O)NC2=O)c2ccc(C3CCN(C[C@H]4CC[C@H](n5cc6cc(NC(=O)c7cccc(C(F)(F)F)n7)ccc6n5)CC4)CC3(F)F)cc21 (some centres unmarked) [I-465]
0.01 to 0.1 µM	> 0.2 µM			C[C@@H]1CN(C[C@H]2CC[C@H](n3cc(NC(=O)c4cnn5ccc(N6C[C@H]7C[C@@H]6CO7)nc45)c(C(F)F)n3)CC2)CC[C@H]1OCC#Cc1cccc2c(N3CCC(=O)NC3=O)cncc12 [I-55]
< 0.01 µM	> 0.2 µM			Cn1c(=O)n(C2CCC(=O)NC2=O)c2cccc(N3CCC(CN4CCN(C[C@H]5CC[C@H](n6cc(NC(=O)c7cnn8ccc(N9C[C@@H]%10C[C@H]9CO%10)nc78)c(C(F)F)n6)CC5)CC4)CC3)c21 (some centres unmarked) [I-158]
< 0.01 µM	> 0.2 µM			COc1cc2nc([C@H]3CC[C@H](CN4CCC5(CC4)CCN(c4cccc6c4n(C)c(=O)n6C4CCC(=O)NC4=O)CC5)CC3)ccc2cc1NC(=O)c1cncc(C#N)c1 (some centres unmarked) [I-204]
> 0.2 µM	> 0.2 µM			Cn1c(=O)n(C2CCC(=O)NC2=O)c2cccc(N3CCC(N4CCN([C@H]5CC[C@@H](n6cc(NC(=O)c7cnn8ccc(N9C[C@H]%10C[C@@H]9CO%10)nc78)c(C(F)F)n6)CC5)CC4)CC3)c21 (some centres unmarked) [I-422]
> 0.2 µM	< 0.01 µM			Cn1c(=O)n(C2CCC(=O)NC2=O)c2cccc(C3CCN(CC4CCC(n5cc6cc(NC(=O)c7cnn8ccc(N9CC%10CC9CO%10)cc78)ncc6n5)CC4)CC3(F)F)c21 (centres unmarked) [I-734]
> 0.2 µM	> 0.2 µM			CN(C[C@H]1CC[C@H](n2cc3cc(NC(=O)c4cccc(C(F)(F)F)n4)c(S(C)(=N)=O)cc3n2)CC1)C1CCN(c2cccc3c2n(C)c(=O)n3C2CCC(=O)NC2=O)CC1(F)F (some centres unmarked) [I-480]
> 0.2 µM	> 0.2 µM			Cn1c(=O)n(C2CCC(=O)NC2=O)c2cccc(C#CCN3CCN(C[C@H]4CC[C@H](n5cc(NC(=O)c6cnn7ccc(C8COCCN8)nc67)c(C(F)F)n5)CC4)CC3)c21 (some centres unmarked) [I-301]
> 0.2 µM	> 0.2 µM			Cn1c(=O)n(C2CCC(=O)NC2=O)c2cccc(-c3cc(CN4CCn5cc(-n6cc(NC(=O)c7cnn8cccnc78)c(C(F)F)n6)cc5C4)ncn3)c21 (centres unmarked) [I-415]
> 0.2 µM	> 0.2 µM			Cn1c(=O)n(C2CCC(=O)NC2=O)c2cccc(C[C@H]3CN(C[C@H]4CC[C@H](n5cc(NC(=O)c6cnn7cccnc67)c(C(F)F)n5)CC4)CCO3)c21 (some centres unmarked) [I-381]
> 0.2 µM	> 0.2 µM			Cn1c(=O)n(C2CCC(=O)NC2=O)c2cccc(C3CCN(C[C@H]4CC[C@H](n5cc6cc(NC(=O)c7cccc(C(F)(F)F)n7)ccc6n5)CC4)CC3O)c21 (some centres unmarked) [I-460]
> 0.2 µM	< 0.01 µM			Cn1c(=O)n(C2CCC(=O)NC2=O)c2cccc([C@H]3CCN(C[C@H]4CC[C@H](n5cc6cc(NC(=O)c7cccc(C(F)(F)F)n7)ncc6n5)CC4)C[C@@H]3F)c21 (some centres unmarked) [I-717]
0.01 to 0.1 µM	> 0.2 µM			Cn1c(=O)n(C2CCC(=O)NC2=O)c2cccc(CCCN3CCN(C(C#N)[C@H]4CC[C@H](n5cc(NC(=O)c6cnn7ccc(N8C[C@H]9C[C@@H]8CO9)nc67)c(C(F)F)n5)CC4)CC3)c21 (some centres unmarked) [I-197]

From patent publication US12091411B2, “IRAK degraders and uses thereof” (Kymera Therapeutics, Inc., priority 2022, dated 2024)
